Test results: patent US6548553B2, “Styryl sulfone anticancer agents” (Temple University-of the Commonwealth System of Higher …, priority 1997, dated 2003)

Test system: NIH3T3 or HFL
Experiment: Cell cycle analysis, normal cell lines
Format: cell-based

## O=S(=O)(/C=C/c1ccc(F)cc1)Cc1ccc(Cl)cc1 [Example 11, E-4-fluorostyryl 4-chlorobenzyl Sulfone]
  effect on cell cycle progression: failed to produce a similar effect on cell cycle progression
